This note sets out measurements from patent US4570005A, “Process for the preparation of 2-arylpropyl ether or thioether derivatives” (priority 1980, dated 1986).

The test system of one data set is green peach aphid. Put plainly: Test 5: Effect on Green Peach Aphid. In kind it is in vivo. To be noted: Myzus persicae; 100 ppm; mortality class; 24 hours; read-out: Insecticidal Activity. The protocol:
To a mixture of 20 parts of the compound of the present invention and 20 parts of Sorpol SM-200 (registered tradename for the product supplied by Toho Chemical Industrial Co., Ltd.) was added 60 parts of xylol, and the mixture was suffciently blended. The obtained emulsifiable concentrate was diluted at a predetermined concentration with distilled water, and the obtained dilution was used.
Seedlings (having 3 to 4 leaves) of an eggplant grown on a pot were inoculated with green peach aphids and the insects were allowed to grow. The number of the insects was counted. A chemical dilution having a concentration of 100 ppm, prepared in the same manner as described in Test 1, was applied with a spray gun at a rate of 10 ml per pot. Then, the pot was placed in a glass green house. After 24 hours, the number of living insects was counted and the mortality was calculated.
The test was made on three pots, and the average value was calculated. In Table 6, mark "A" indicates a mortality higher than 95%, mark "B" indicates a mortality of 80 to 95%, mark "C" indicates a mortality of 50 to 80%, and mark "D" indicates a mortality lower than 50%.

A short description of a further data set: Test 8: Fish Toxicity. In kind it is in vivo. The conditions noted are these: carp, water; concentration at which 1/2 of the test fishes were killed within 48 hours; read-out: Fish Toxicity, TLm48. The protocol: A water tank having a width of 60 cm, a length of 30 cm and a height of 40 cm was filled with water, and 10 yearling carps having a body length of about 5 cm were set free in the tank and adapted to the environment in the tank. A test compound was applied so that the concentration in water was 10, 1 or 0.1 ppm. After 48 hours, the numbers of killed and living carps were counted and the influences on the fishes were examined.

Data set [1] is described as follows: Test 9: Toxicity Test (acute oral toxicity, mice). The conditions noted are these: mouse, in vivo, po. The protocol:
A predetermined amount of a solution or suspension of a test compound in corn oil was orally administered to male mice having a body weight of 19 to 23 g (0.2 ml per 10 g of the body weight). After 7 days, the number of killed mice was counted and the influences on the mice were examined.

Data set [2] deals with tobacco cutworm. Put plainly: Test 2: Tobacco Cutworm Larva Dipping Test, mortality after 24 hours. In kind it is in vivo. The conditions noted are these: 24 h. Summed up:
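Second- and fifth-instar larvae dipped 5 s in a water dilution of an emulsifiable concentrate at 100 or 20 ppm, blotted, then held on artificial diet at 25° C. Dead and living larvae counted after 24 hours; mortality averaged over three cups.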

The next data set concerns diamond back moth. Put plainly: Test 4: Effect on Diamond Back Moth. In kind it is in vivo. The conditions noted are these: Plutella. In short, it runs like this: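 Compound formulated as an emulsifiable concentrate, diluted in water to 100 or 20 ppm and sprayed at 3 ml per cup onto cabbage leaves holding 10 third-instar larvae. Mortality counted after 24 hours; mean of three cups.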

Another data set has as its system German cockroach. Put plainly: Test 7: Effect on German Cockroach. In kind it is in vivo. The conditions noted are these: Blattella germanica. Summed up: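 Petri dish floors were treated with 50 or 10 mg/m2 of compound (diluted emulsifiable concentrate) and air-dried. Ten male adult German cockroaches per dish were held at 25° C. Agonized and dead insects were counted after 24 hours, averaging two dishes.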

Data set [3] has as its system resistant green rice leafhopper (collected at Nakagawara). Put plainly: Test 3: Effect on Resistant Green Rice Leafhopper (collected at Nakagawara). In kind it is in vivo, Nephotettix cincticeps Uhler (Green rice leafhopper). To be noted: Nephotettix cincticeps, 24 h, read-out: Mortality (%), Green Rice Leafhopper Collected at Nakagawara. In short, it runs like this:
(§1)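 Emulsifiable concentrate diluted to 100 or 20 ppm was sprayed, 3 ml per pot, onto hydroponic rice seedlings at 2–3 leaves. After air-drying, 10 female adults of the Nakagawara (resistant) or Chigasaki (sensitive) strain were released per caged pot. Mortality was counted at 24 h and averaged over three pots.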

Data set [4] has as its system sensitive green rice leafhopper (collected at Chigasaki). In words: whole plant or invertebrate. In kind it is in vivo. To be noted: Nephotettix cincticeps, sensitive female adults, 24 hours, read-out: Mortality (%), Green Rice Leafhopper Collected at Chigasaki. Summed up: as §1
For data set [5], the system named is tobacco cutworm. In words: Test 1: Effect on Tobacco Cutworm (leaf immersion), mortality after 24 hours. In kind it is in vivo. To be noted: second-instar larvae, 25° C. In short, it runs like this:
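Sweet-potato leaves dipped 10 s in emulsifiable concentrate diluted to 100 or 20 ppm, air-dried, then exposed to second-instar larvae at 25 °C. Mortality counted after 24 h, averaged over three cups.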

[6] abbreviates: read-out: Motality (%), Fifth-Instar Larvae.
The mark [7] stands for this setting: read-out: Motality (%), Second-Instar Larvae.
The mark [8] stands for this setting: 20 ppm, third-instar larvae, 24 hours, read-out: Mortality (%).
Setting [9] is: 100 ppm, third-instar larvae, 24 hours, read-out: Mortality (%).

Like-named read-outs stand apart in the source and are kept apart here.

As to `COc1ccc(Oc2cccc(COCC(C)(C)c3ccc(SC)cc3)c2)cc1` [Compound 8, 3-(4-Methoxyphenoxy)benzyl 2-(4-methylthiophenyl)-2-methylpropyl ether], in the data set with green peach aphid, the mortality at 100 ppm is 80 to 95%. In addition, in the data set “Test 8: Fish Toxicity”, the LC50 at 48 h was above 10 µg/mL. Besides, the LD50 at 168 h in data set [1] is above 500 mg/kg.

Turning to `COP(=O)(OC)OC=C(Cl)Cl` [(g), O,O-dimethyl-O-(2,2-dichlorovinyl)phosphate, reference compound], the mortality at 20 ppm came to 10% in the data set on tobacco cutworm [2] (setting [6]), 20% in the data set on tobacco cutworm [2] (setting [7]) and 0% in the data set on diamond back moth (24 h). Also, the mortality at 100 ppm in the data set on tobacco cutworm [2] (setting [6]) is 30%; in the data set on tobacco cutworm [2] (setting [7]), 50%; in the data set with diamond back moth (24 h), 60%; in the data set on green peach aphid it was below 50%. For the same molecule, in the data set with German cockroach (24 h), the mortality at 10 mg/m2 was found to be 40%. The mortality at 50 mg/m2 with German cockroach (24 h) was found to be 100%.

For the molecule `CC(C)(COCc1cccc(Sc2ccccc2)c1)c1ccc(Cl)cc1` [Compound 15, 3-Phenylthiobenzyl 2-(4-chlorophenyl)-2-methylpropyl ether], the mortality at 20 ppm is 90% in [3] and 70% in [4]. Besides, the mortality at 100 ppm in [3] is 100%; in [4], 100%; in the data set on green peach aphid, 80 to 95%. Besides, the LC50 at 48 h in the data set “Test 8: Fish Toxicity” is above 10 µg/mL. In [1], the LD50 at 168 h is above 500 mg/kg.

In the case of `CCC(C)(COCc1cccc(Oc2ccccc2)c1)c1ccc(C)cc1` (stereo not drawn) [Compound 53, 3-Phenoxybenzyl 2-(4-methylphenyl)-2-ethylpropyl ether], the mortality at 20 ppm was determined as 100% in data set [3], 80% in data set [4] and 100% in the data set on diamond back moth (setting [8]). Further, the mortality at 100 ppm in data set [3] is 100%; in [4] it was 100%; in the data set on diamond back moth (setting [9]), 100%; in the data set on green peach aphid, 80 to 95%. Moreover, in the data set “Test 8: Fish Toxicity”, the LC50 at 48 h is above 10 µg/mL. This molecule also had an LD50 at 168 h in [1] above 500 mg/kg.

As to `CC(C)(COCc1coc(Cc2ccccc2)c1)c1ccc(Cl)cc1` [Compound 12, 5-Benzyl-3-furylmethyl 2-(4-chlorophenyl)-2-methylpropyl ether], the mortality at 100 ppm in the data set with green peach aphid was 80 to 95%. Also, the LC50 at 48 h in “Test 8: Fish Toxicity” was above 10 µg/mL. For the same molecule, in [1], the median lethal dose (LD50) at 168 h is above 500 mg/kg.

Turning to `CSc1ccc(C(C)(C)COCc2cccc(Oc3ccccc3)c2)cc1` [Compound 24, 3-Phenoxybenzyl 2-(4-methylthiophenyl)-2-methylpropyl ether], the values for the mortality at 20 ppm in data set [3] and in [4] were 70% and 40%, respectively. Besides, the mortality at 100 ppm was 100% in data set [3], 100% in data set [4] and above 95% in the data set on green peach aphid. Further, the LC50 at 48 h in the data set “Test 8: Fish Toxicity” was above 10 µg/mL. This molecule returned an LD50 at 168 h in data set [1] above 500 mg/kg.

For the molecule `CCC(C)(COCc1cccc(Oc2cccc(Cl)c2)c1)c1cccc(C)c1` (stereo not drawn) [Compound 29], in the data set on green peach aphid, the mortality at 100 ppm was 80 to 95%. The LC50 at 48 h in the data set “Test 8: Fish Toxicity” was above 10 µg/mL. The LD50 at 168 h in data set [1] is above 500 mg/kg.

With `CCCCCOc1ccc(C(C)(C)COCc2cccc(Oc3ccccc3)c2)cc1` [Compound 62, 3-Phenoxybenzyl 2-[4-(n-pentyloxy)phenyl]-2-methylpropyl ether], the results for the mortality at 20 ppm with tobacco cutworm [5] and in the data set with diamond back moth (setting [8]) were 80% and 50%, respectively. The mortality at 100 ppm in the data set with tobacco cutworm [5] was 100%; in the data set with diamond back moth (setting [9]), 100%; in the data set on green peach aphid, 80 to 95%. In addition, the LC50 at 48 h in the data set “Test 8: Fish Toxicity” was above 1 µg/mL. The same molecule displayed an LD50 at 168 h in data set [1] above 500 mg/kg.

As to `CC(C)(CSCc1cccc(Oc2ccc(F)cc2)c1)c1ccc(Cl)cc1` [Compound 9], the mortality at 20 ppm came to 90% in the data set with tobacco cutworm [5], 90% in [3], 70% in [4] and 95% in the data set with diamond back moth (setting [8]). Besides, the mortality at 100 ppm in the data set with tobacco cutworm [5] is 100%; in [3], 100%; in data set [4], 100%; in the data set on diamond back moth (setting [9]), 100%; in the data set on green peach aphid, above 95%. Moreover, the mortality at 10 mg/m2 in the data set with German cockroach (10 mg/m^2, male adults, agonized and killed after 24 hours, read-out: Mortality (%)) was determined as 100%. For the same molecule, the mortality at 50 mg/m2 in the data set on German cockroach (50 mg/m^2, male adults, agonized and killed after 24 hours, read-out: Mortality (%)) stood at 100%. For the same molecule, in [1], the median lethal dose (LD50) at 168 h was above 500 mg/kg.
